Source: ChEMBL document CHEMBL3792365, “Dioxol and dihydrodioxin analogs of 2- and 3-phenylacetonitriles as potent anti-cancer agents with nanomolar activity against a variety of human cancer cells” (2016)

Tests used:
Format in all cases: functional
[1] = Growth inhibition of human UACC62 cells at 10 uM after 48 hrs by sulforhodamine B assay; settings: UACC-62, 48 h, values are per cent of control
SK-MEL-5 = experiment: Growth inhibition of human SK-MEL-5 cells at 10 uM after 48 hrs by sulforhodamine B assay; settings: SK-MEL-5, 48 h, values are per cent of control
NCI-H226 = experiment: Growth inhibition of human NCI-H226 cells at 10 uM after 48 hrs by sulforhodamine B assay; settings: NCI-H226, 48 h, values are per cent of control
[2] = Growth inhibition of human HCC2998 cells at 10 uM after 48 hrs by sulforhodamine B assay; settings: HCC 2998, 48 h, values are per cent of control
[3] = Growth inhibition of human Caki1 cells at 10 uM after 48 hrs by sulforhodamine B assay; settings: CAKI-1, 48 h, values are per cent of control
U-251 = experiment: Growth inhibition of human U251 cells at 10 uM after 48 hrs by sulforhodamine B assay; settings: U-251, 48 h, values are per cent of control
[4] = Growth inhibition of human HOP62 cells at 10 uM after 48 hrs by sulforhodamine B assay; settings: HOP-62, 48 h, values are per cent of control
ACHN = experiment: Growth inhibition of human ACHN cells at 10 uM after 48 hrs by sulforhodamine B assay; settings: values are per cent of control
[5] = Growth inhibition of human DU145 cells at 10 uM after 48 hrs by sulforhodamine B assay; settings: DU-145, 48 h, values are per cent of control
[6] = Growth inhibition of human HCT15 cells at 10 uM after 48 hrs by sulforhodamine B assay; settings: HCT-15, 48 h, values are per cent of control
NCI-H23 = experiment: Growth inhibition of human NCI-H23 cells at 10 uM after 48 hrs by sulforhodamine B assay; settings: NCI-H23, 48 h, values are per cent of control
MDA-MB-468 = experiment: Growth inhibition of human MDA-MB-468 cells at 10 uM after 48 hrs by sulforhodamine B assay; settings: MDA-MB-468, 48 h, values are per cent of control
[7] = Growth inhibition of human Hs 578T cells at 10 uM after 48 hrs by sulforhodamine B assay; settings: values are per cent of control
SN12C = experiment: Growth inhibition of human SN12C cells at 10 uM after 48 hrs by sulforhodamine B assay; settings: values are per cent of control
T47D = experiment: Growth inhibition of human T47D cells at 10 uM after 48 hrs by sulforhodamine B assay; settings: values are per cent of control
SK-MEL-2 = experiment: Growth inhibition of human SK-MEL-2 cells at 10 uM after 48 hrs by sulforhodamine B assay; settings: SK-MEL-2, 48 h, values are per cent of control
A549 = experiment: Growth inhibition of human A549/ATCC cells at 10 uM after 48 hrs by sulforhodamine B assay; settings: A549, 48 h, values are per cent of control
MDA-MB-435 = experiment: Growth inhibition of human MDA-MB-435 cells at 10 uM after 48 hrs by sulforhodamine B assay; settings: MDA-MB-435, 48 h, values are per cent of control
SK-MEL-28 = experiment: Growth inhibition of human SK-MEL-28 cells at 10 uM after 48 hrs by sulforhodamine B assay; settings: SK-MEL-28, 48 h, values are per cent of control
[8] = Growth inhibition of human HCT116 cells at 10 uM after 48 hrs by sulforhodamine B assay; settings: HCT-116, 48 h, values are per cent of control
[9] = Growth inhibition of human SW620 cells at 10 uM after 48 hrs by sulforhodamine B assay; settings: SW-620, 48 h, values are per cent of control
[10] = Growth inhibition of human RXF393 cells at 10 uM after 48 hrs by sulforhodamine B assay; settings: RXF 393, 48 h, values are per cent of control
NCI-H322M = experiment: Growth inhibition of human NCI-H322M cells at 10 uM after 48 hrs by sulforhodamine B assay; settings: values are per cent of control
NCI-H522 = experiment: Growth inhibition of human NCI-H522 cells at 10 uM after 48 hrs by sulforhodamine B assay; settings: NCI-H522, 48 h, values are per cent of control
[11] = Growth inhibition of human LOXIMVI cells at 10 uM after 48 hrs by sulforhodamine B assay; settings: LOX IMVI, values are per cent of control
[12] = Growth inhibition of human SF268 cells at 10 uM after 48 hrs by sulforhodamine B assay; settings: SF-268, 48 h, values are per cent of control
[13] = Growth inhibition of human TK10 cells at 10 uM after 48 hrs by sulforhodamine B assay; settings: TK-10, 48 h, values are per cent of control
[14] = Growth inhibition of human OVCAR4 cells at 10 uM after 48 hrs by sulforhodamine B assay; settings: OVCAR-4, 48 h, values are per cent of control
[15] = Growth inhibition of human IGROV1 cells at 10 uM after 48 hrs by sulforhodamine B assay; settings: IGROV-1, 48 h, values are per cent of control
[16] = Growth inhibition of human SF539 cells at 10 uM after 48 hrs by sulforhodamine B assay; settings: SF-539, 48 h, values are per cent of control
[17] = Growth inhibition of human BT549 cells at 10 uM after 48 hrs by sulforhodamine B assay; settings: BT-549, 48 h, values are per cent of control
NCI-H460 = experiment: Growth inhibition of human NCI-H460 cells at 10 uM after 48 hrs by sulforhodamine B assay; settings: NCI-H460, 48 h, values are per cent of control
M14 = experiment: Growth inhibition of human M14 cells at 10 uM after 48 hrs by sulforhodamine B assay; settings: M14, 48 h, values are per cent of control
[18] = Growth inhibition of human SF295 cells at 10 uM after 48 hrs by sulforhodamine B assay; settings: SF-295, 48 h, values are per cent of control
[19] = Growth inhibition of human COLO205 cells at 10 uM after 48 hrs by sulforhodamine B assay; settings: COLO 205, 48 h, values are per cent of control
SR = experiment: Growth inhibition of human SR cells at 10 uM after 48 hrs by sulforhodamine B assay; settings: values are per cent of control
[20] = Growth inhibition of human SNB19 cells at 10 uM after 48 hrs by sulforhodamine B assay; settings: SNB-19, 48 h, values are per cent of control
786-0 = experiment: Growth inhibition of human 786-0 cells at 10 uM after 48 hrs by sulforhodamine B assay; settings: 786-0, 48 h, values are per cent of control
[21] = Growth inhibition of human NCI-ADR-RES cells at 10 uM after 48 hrs by sulforhodamine B assay; settings: values are per cent of control
[22] = Growth inhibition of human OVCAR8 cells at 10 uM after 48 hrs by sulforhodamine B assay; settings: OVCAR-8, 48 h, values are per cent of control

Row | SMILES | growth, % of control at 10 µM [1] [%] | growth, % of control at 10 µM (SK-MEL-5) [%] | growth, % of control at 10 µM (NCI-H226) [%] | growth, % of control at 10 µM [2] [%] | growth, % of control at 10 µM [3] [%] | growth, % of control at 10 µM (U-251) [%] | growth, % of control at 10 µM [4] [%] | growth, % of control at 10 µM (ACHN) [%] | growth, % of control at 10 µM [5] [%] | growth, % of control at 10 µM [6] [%] | growth, % of control at 10 µM (NCI-H23) [%] | growth, % of control at 10 µM (MDA-MB-468) [%] | growth, % of control at 10 µM [7] [%] | growth, % of control at 10 µM (SN12C) [%] | growth, % of control at 10 µM (T47D) [%] | growth, % of control at 10 µM (SK-MEL-2) [%] | growth, % of control at 10 µM (A549) [%] | growth, % of control at 10 µM (MDA-MB-435) [%] | growth, % of control at 10 µM (SK-MEL-28) [%] | growth, % of control at 10 µM [8] [%] | other results
1 | N#C/C(=C\c1ccc2ccccc2n1)c1ccc2c(c1)OCO2 | 86.8 | 95.3 | 70.8 | 95.1 | 76 | 26.7 | 69.7 | 41.4 | 81.3 | 79.7 | 58.8 | 77.8 | 34.8 | 73 | 69.4 | 87.1 | 56.8 | 48.3 | 88.6 | 20.5 | growth, % of control at 10 µM [9]: 89.9%; growth, % of control at 10 µM [10]: 80%; growth, % of control at 10 µM (NCI-H322M): 66.6%; growth, % of control at 10 µM (NCI-H522): 58.8%; growth, % of control at 10 µM [11]: 59.5%; growth, % of control at 10 µM [12]: 62.5%; growth, % of control at 10 µM [13]: 45%; growth, % of control at 10 µM [14]: 45%; growth, % of control at 10 µM [15]: 55.1%; growth, % of control at 10 µM [16]: 69.6%; growth, % of control at 10 µM [17]: 86.1%; growth, % of control at 10 µM (NCI-H460): 24.7%; growth, % of control at 10 µM (M14): 90.3%; growth, % of control at 10 µM [18]: 64%; growth, % of control at 10 µM [19]: 104%; growth, % of control at 10 µM (SR): 60.5%; growth, % of control at 10 µM [20]: 34.7%; growth, % of control at 10 µM (786-0): 51.9%; growth, % of control at 10 µM [21]: 64.3%; growth, % of control at 10 µM [22]: 60.8%
2 | COc1cc(/C(C#N)=C/c2ccc3c(c2)OCCO3)cc(OC)c1OC | 45.4 | -38 | 43.9 | 14.9 | 20 | 8.1 | 40.8 | 34.4 | 6.7 | 16.5 | 20.7 | -15.1 | 18.7 | 34.5 | 84.4 | 24.1 | 21.1 | -22.2 | 63 | -12.3 | growth, % of control at 10 µM [9]: 25.2%; growth, % of control at 10 µM [10]: 41.8%; growth, % of control at 10 µM (NCI-H322M): 24.2%; growth, % of control at 10 µM (NCI-H522): -27%; growth, % of control at 10 µM [11]: 24.7%; growth, % of control at 10 µM [12]: 24.6%; growth, % of control at 10 µM [13]: 48.5%; growth, % of control at 10 µM [14]: 44.9%; growth, % of control at 10 µM [15]: 25.5%; growth, % of control at 10 µM [16]: 2.5%; growth, % of control at 10 µM [17]: -17.2%; growth, % of control at 10 µM (NCI-H460): 5.2%; growth, % of control at 10 µM (M14): 5.7%; growth, % of control at 10 µM [18]: -8%; growth, % of control at 10 µM [19]: -74.4%; growth, % of control at 10 µM (SR): -11%; growth, % of control at 10 µM [20]: 51.2%; growth, % of control at 10 µM (786-0): 14.8%; growth, % of control at 10 µM [21]: 17%; growth, % of control at 10 µM [22]: 10.4%
